Reference: US9409880B2, “Modulators of TLR3/dsRNA complex and uses thereof” (The Regents of the University of Colorado, a body corporate, priority 2011, dated 2016)

Legend:
[1] = tested on: RAW 264.7 cells; test: WST-1 cytotoxicity assay; assay type: cell-based, Mouse; conditions: WST-1 methodology; different concentrations
Description: This assay was conducted in a 96-well plate with 5,000 cells in 100 μL media (RPMI 1640 medium, supplemented with 10% FBS, penicillin (100 U/mL) and streptomycin ([…])) per well. Eight wells were left empty for blank controls. The plates were incubated (37° C., 5% CO2) overnight to allow the cells to attach to the wells. WST-1 proliferation reagent (Roche) was added to the cells (10 μL per well) and continued to incubate for 1-2 h at 37° C. Plates were checked visually by comparing the colour of wells with media without cells (colour remained pink) with wells contained untreated cells (colour is orange). When a clear difference could be seen by naked eye, results were read by spectrophotometer at 490 nm. Cytotoxicity (%) was determined using the following formula: Cytotoxicity (%)=(1−[Compounds (OD490)−Background (OD490)]/[Control (OD490)−Background (OD490)])×100.

[2] = biological target: T1, TLR7 (Mus musculus, UniProt P58681); test: RAW264.7 cell nitric oxide TLR selectivity assay (R848); assay type: cell-based; conditions: 27 μM
T1 construct: endogenous in cells; host or cells: RAW 264.7
T1 sequence (P58681 27-1050): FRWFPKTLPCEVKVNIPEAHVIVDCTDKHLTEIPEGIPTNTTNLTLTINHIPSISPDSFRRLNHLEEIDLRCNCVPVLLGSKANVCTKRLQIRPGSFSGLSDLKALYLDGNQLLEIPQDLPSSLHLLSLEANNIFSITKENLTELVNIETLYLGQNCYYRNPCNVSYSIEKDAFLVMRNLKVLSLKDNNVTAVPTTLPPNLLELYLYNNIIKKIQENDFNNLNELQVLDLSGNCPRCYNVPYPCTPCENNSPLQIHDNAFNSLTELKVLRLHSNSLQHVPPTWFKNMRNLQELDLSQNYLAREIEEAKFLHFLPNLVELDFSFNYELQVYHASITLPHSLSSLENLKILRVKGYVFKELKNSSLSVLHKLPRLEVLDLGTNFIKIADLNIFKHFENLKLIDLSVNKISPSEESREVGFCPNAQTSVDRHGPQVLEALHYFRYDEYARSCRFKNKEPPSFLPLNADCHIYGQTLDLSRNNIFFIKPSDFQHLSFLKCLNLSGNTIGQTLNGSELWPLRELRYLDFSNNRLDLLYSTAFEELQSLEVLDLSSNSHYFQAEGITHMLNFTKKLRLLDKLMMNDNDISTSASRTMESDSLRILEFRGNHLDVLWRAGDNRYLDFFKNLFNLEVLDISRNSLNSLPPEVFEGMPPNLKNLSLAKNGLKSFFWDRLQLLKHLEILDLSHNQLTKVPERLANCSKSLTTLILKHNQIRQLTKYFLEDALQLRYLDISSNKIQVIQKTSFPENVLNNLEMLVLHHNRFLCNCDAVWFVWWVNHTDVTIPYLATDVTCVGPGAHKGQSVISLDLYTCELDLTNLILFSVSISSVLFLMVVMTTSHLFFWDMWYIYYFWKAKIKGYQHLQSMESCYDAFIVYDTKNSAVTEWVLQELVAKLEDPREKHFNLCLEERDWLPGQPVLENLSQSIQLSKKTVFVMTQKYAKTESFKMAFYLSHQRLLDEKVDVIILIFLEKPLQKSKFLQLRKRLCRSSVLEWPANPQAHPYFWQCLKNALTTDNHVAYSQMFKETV

## O=C(N[C@H](Cc1ccccc1)C(=O)O)c1sc2cc(F)ccc2c1Cl [Compound 4a, (R)-2-(3-chloro-6-fluorobenzo[b]thiophene-2-carboxamido)-3-phenylpropanoic acid]
[1]
  toxicity in RAW 264.7 cells: did not show any significant toxicity
[2]
  effect on TLR7 signaling: without significantly affecting other TLRs
